The values below come from patent US20200087709A1, “DIRECT-TO-CONSUMER GENOMIC DIAGNOSTIC DEVICE” (MicroInvestigate, LLC, priority 2018, published 2020).

Entries after “also recorded” stand apart in the source; their conditions may differ.

Holding throughout (assay): Antibiotic testing by broth microdilution
Common to all, as to type: cell-based
In general terms: In broth dilution the organism is exposed to a series of concentrations in liquid medium.

Assay [1] relates to Streptococcus pyogenes MGAS6180. Conditions: for resistance or susceptibility by broth dilution: S. pyogenes MGAS6180 (mef(A) negative); for MIC: Streptococcus pyogenes, S. pyogenes MGAS6180, known mef(A)−, BHI, 37° C., 20 hour incubation. How it is done: (§1) All bacteria were tested for their antimicrobial susceptibility by broth microdilution. Ampicillin (Cat #97061-442) was obtained from VWR (Amresco) and Erythromycin (Cat # TCE0751-5G) was obtained from VWR (TCI). Bacteria were maintained on blood agar plates at 37° C., and single colonies selected for inoculation into liquid overnight cultures in sterile Brain-Heart Infusion (BHI, VWR Cat #90003-038). For each culture, 5 mL of BHI media was inoculated in a sealed 15 ml falcon tube for overnight incubation at 37° C. (no shaking). Gentle inversion was used to mix the cultures prior to setting up the assay.
(§2) For the experiment, 5 μl of overnight culture was mixed with 5 mL of BMI media (1000× dilution) in a sterile tray and gently mixed. This dilute culture was added at […] per well of a 96-well plate pre-loaded with 20 μl of antibiotic solutions ranging, for erythromycin, from 0.5 to 32 μg/ml (10×) to produce the desired final concentrations of 0.05-3.2 μg/ml. For ampicillin, the stocks were 1.25 μg/ml-80 μg/ml resulting in final concentrations of 0.125 μg/ml-8 μg/ml. The 96-well plate was then transferred to a FilterMax F5 microplate reader for a 20 hour incubation at a temperature of 37° C., with readings taken every 30 minutes. A10-second orbital shaking was performed prior to each reading.

The test system of assay [2] is Streptococcus agalactiae SGBS025. To be noted: for resistance or susceptibility by broth dilution: S. agalactiae (ermB positive and mef(A) negative); for MIC: Streptococcus agalactiae, SGBS025, 20 h, S. agalactiae SGBS025, known ermB+, mef(A)−, BHI, 37° C., 20 hour incubation. How it is done:
as §1, §2

The subject of assay [3] is Streptococcus pyogenes MGAS10394. Conditions: for resistance or susceptibility by broth dilution: S. pyogenes MGAS10394 (mef(A) positive); for MIC: Streptococcus pyogenes, MGAS10394, 20 h, S. pyogenes MGAS10394, known mef(A)+, BHI, 37° C., 20 hour incubation. How it is done:
as §1, §2

Assay [4] relates to Streptococcus salivarius patient isolate. Conditions: for resistance or susceptibility by broth dilution: S. salivarius (mef(A) positive); for MIC: Streptococcus salivarius, 20 h, S. salivarius patient isolate, discovered mef(A)+, BHI, 37° C., 20 hour incubation. How it is done: as §1, §2

As usually defined, the MIC is the smallest concentration in the dilution series that meets the test's criterion for growth inhibition. Read a low MIC as inhibition by little substance. In the case of `CC1(C)S[C@@H]2[C@H](NC(=O)[C@H](N)c3ccccc3)C(=O)N2[C@H]1C(=O)O` [ampicillin, Ampicillin], the “resistance or susceptibility by broth dilution” value in assay [1], in assay [2], in assay [3] and in assay [4] was “susceptible” each time. Besides, the MIC in assay [1], in assay [2], in assay [3] and in assay [4] was below 0.125 µg/mL each time.
On to `CC[C@H]1OC(=O)[C@H](C)[C@@H](O[C@H]2C[C@@](C)(OC)[C@@H](O)[C@H](C)O2)[C@H](C)[C@@H](O[C@@H]2O[C@H](C)C[C@H](N(C)C)[C@H]2O)[C@](C)(O)C[C@@H](C)C(=O)[C@H](C)[C@@H](O)[C@]1(C)O` [erythromycin, Erythromycin], for which the “resistance or susceptibility by broth dilution” value in assay [1] was “susceptible”; in assay [2] it was “robust resistance; also recorded: resistant”; in assay [3], “resistant”; in assay [4] it was “resistant”. For the same compound, the MIC in assay [1] is below 0.05 µg/mL; in assay [2], at least 3.2 µg/mL; in assay [3], at least 3.2 µg/mL; in assay [4], at least 3.2 µg/mL.
